Experiments:
FXR = target: T1, FXR (Homo sapiens, UniProt Q96RI1); assay: FXR Agonist Tranactivation Assay (luciferase reporter, CV-1 cells); type: cell-based; conditions: at 10 μM; CV-1 cells cotransfected with pCMV6-NR1H4 (FXR), pCMV6-RXRA and pEcREX7-TK-Luc; positive control 10 uM XL-335; 20 hours
T1 construct: expressed in transfected cells; host or cells: CV-1 cells, transient cotransfection
T1 sequence (Q96RI1 1-486): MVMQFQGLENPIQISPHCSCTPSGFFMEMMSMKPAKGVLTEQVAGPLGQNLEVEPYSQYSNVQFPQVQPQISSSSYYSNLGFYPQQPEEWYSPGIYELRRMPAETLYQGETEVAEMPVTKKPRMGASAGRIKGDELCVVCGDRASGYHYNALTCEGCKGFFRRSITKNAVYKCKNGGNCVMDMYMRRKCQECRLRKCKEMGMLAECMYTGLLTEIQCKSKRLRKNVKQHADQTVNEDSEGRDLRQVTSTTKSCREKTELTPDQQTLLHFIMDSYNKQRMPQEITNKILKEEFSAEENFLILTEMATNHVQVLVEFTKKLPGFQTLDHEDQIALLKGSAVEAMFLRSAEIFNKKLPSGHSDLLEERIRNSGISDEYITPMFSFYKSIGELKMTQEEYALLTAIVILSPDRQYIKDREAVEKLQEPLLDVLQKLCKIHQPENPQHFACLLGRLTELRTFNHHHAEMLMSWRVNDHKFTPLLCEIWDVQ
T1 sequence (P19793 1-462 partner): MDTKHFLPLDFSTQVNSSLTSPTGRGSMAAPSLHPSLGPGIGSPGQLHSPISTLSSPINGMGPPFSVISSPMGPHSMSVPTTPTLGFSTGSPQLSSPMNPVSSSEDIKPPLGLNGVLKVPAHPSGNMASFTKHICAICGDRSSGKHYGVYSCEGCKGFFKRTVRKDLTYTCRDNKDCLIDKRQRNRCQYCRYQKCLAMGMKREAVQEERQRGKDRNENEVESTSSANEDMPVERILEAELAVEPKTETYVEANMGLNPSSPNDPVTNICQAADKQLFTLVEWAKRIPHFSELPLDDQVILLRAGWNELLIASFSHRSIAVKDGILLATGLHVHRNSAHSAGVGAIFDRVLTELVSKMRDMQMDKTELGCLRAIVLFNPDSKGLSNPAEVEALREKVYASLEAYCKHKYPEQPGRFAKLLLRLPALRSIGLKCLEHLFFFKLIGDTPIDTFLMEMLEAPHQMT
Method: CV-1 cells were transiently cotransfected with pCMV6-NR1H4 (FXR), pCMV6-RXRA and reporter plasmid pEcREX7-TK-Luc. Five hours after transfection, cells were trypsinized and dispensed into 96-well plates at a concentration of 10,000 cells per well.
Compound Dilution and Addition: Starting from 3.33 mM of compound in DMSO solution a 10-point 3-fold serial dilution was made by diluting 5 μl of compound into 10 μl of DMSO. The serially diluted compound was then diluted 1:33 into DMEM. This medium was then diluted ten-fold into the culture medium with the cells (10 μl/well). All concentration points are assayed in duplicate. Plates were incubated at 37° C. for 20 hours.
Luciferase activity Readout: After the incubation 20 μl of culture medium were removed from each well and mixed with 50 μl of assay solution (Pierce™ Gaussia Luciferase Flash Assay Kit). The luminescence was measured immediately after addition of the Luc substrate with an Envision microplate reader.
Data Reduction and Analysis: The raw data was uploaded to CDD and dose-response curves were generated using the Levenberg-Marquardt algorithm integrated into CDD. As a positive control 10 uM XL-335 and as a negative control DMSO is included on each plate and used to normalize the data with the CDD built-in normalization function.

Mouse SHP = assay: Gene Expression Assay (liver qPCR after p.o. dosing); type: in vivo; conditions: C57BL/6 mice, 10 mg/kg p.o., liver collected 4 hours post dosing
Method: C57BL/6 mice (3 per group) were dosed p.o. with 10 mg/kg of compound 20. Livers were collected at 4 hours post dosing and transferred into RNALater solution immediately. Tissues were stored at 4° C. until RNA isolation. RNA was isolated, quantified and amplified; qPCR was performed using SuperScript® III Platinum® SYBR®Green One-Step qRT-PCR Kit (Cat no. 11736-051). Primers used are as listed: Mouse Cyp7A1: For: (SEQ. ID NO: 1) […] Rev: (SEQ. ID NO: 2) AGTGGTGGCAAAATTCCCA; Mouse SHP: For: (SEQ. ID NO: 3) […] Rev: (SEQ. ID NO: 4) AGCCTCCTGTTGCAGGTGT; Mouse GAPDH: For: (SEQ. ID NO: 5) […] Rev: (SEQ. ID NO: 6) […].

Mouse Cyp7A1 = assay: as above; type: in vivo; conditions: C57BL/6 mice, 10 mg/kg p.o., liver collected 4 hours post dosing
Method: C57BL/6 mice (3 per group) were dosed p.o. with 10 mg/kg of compound 20. Livers were collected at 4 hours post dosing and transferred into RNALater solution immediately. Tissues were stored at 4° C. until RNA isolation. RNA was isolated, quantified and amplified; qPCR was performed using SuperScript® III Platinum® SYBR®Green One-Step qRT-PCR Kit (Cat no. 11736-051). Primers used are as listed: Mouse Cyp7A1: For: (SEQ. ID NO: 1) [NT] Rev: (SEQ. ID NO: 2) [NT]; Mouse SHP: For: (SEQ. ID NO: 3) [NT] Rev: (SEQ. ID NO: 4) [NT]; Mouse GAPDH: For: (SEQ. ID NO: 5) [NT] Rev: (SEQ. ID NO: 6) [NT]

Structure (SMILES) | activation compared to the positive control (FXR) | Avg. % mRNA induction, SHP (Mouse SHP) [%] | Avg. % mRNA induction, CYP7a (Mouse Cyp7A1) [%]
CCOC(=O)C1=CN(C(=O)N2CC[N+](C)(C)CC2)CC(C)(C)c2c1[nH]c1ccccc21.[I-] [compound 20, 4-(5-(ethoxycarbonyl)-1,1-dimethyl-1,2,3,6-tetrahydroazepino[4,5-b]indole-3-carbonyl)-1,1-dimethylpiperazin-1-ium iodide] | 86% | 266 | 57
CC(C)OC(=O)C1=CN(C(=O)c2ccc(OCC[N+]3(C)CCOCC3)cc2)CC(C)(C)c2c(C(F)(F)F)n[nH]c21 [compound 13] | inactive | – | –
